From US7358249B2, “Heterocyclic compounds having inhibitory activity against HIV integrase” (Shionogi & Co., Ltd., priority 2002, dated 2008) come the findings set out here.

One may read the melting point as the temperature of the solid-liquid transition.

One data set addresses HIV integrase (Human immunodeficiency virus type 1 group M subtype B, UniProt P04585). The experiment in a line: integrase inhibition assay (microtiter plate, substrate DNA / target DNA). Format: biochemical. The note with it: integrase 30 pmol, incubated at 30° C. for 1 hour, OD at 405 nm, concentration at percent inhibition 50%; for IC50: read-out: MIA, IC50 (ug/ml) (converted). The protocol: The inhibitory activities against integrase of the presnt compounds were determined by the assay described below.
(1) Preparation of DNA Solutions
Substrate DNA and target DNA synthesized by Amersham Pharmacia Biotech, which sequences were indicated below, were dissolved in KTE buffer (composition: 100 mM KCl, 1 mM EDTA, 10 mM Tris-HCl (pH 7.6)) at a concentration of 2 pmol/μl and 5 pmol/μl, respectively. The DNA solutions were heated and then slowly cooled so that they were annealed with each complement.
(Sequence of Substrate DNA)
(2) Calculations of the percent inhibitions (IC50 values of test compounds)
Streptavidin, obtained from Vector Laboratories, was dissolved in 0.1 M carbonate buffer (composition: 90 mM Na2CO3, 10 mM NaHCO3) at a concentration of 40 μg/ml. After coating each well of microtiter plates (obtained from NUNC) with 50 μl of the above solution at 4° C. over night, each well was washed twice with PBS (composition: […], 0.27 mM KCl, 0.43 mM Na2HPO4, 0.14 mM KH2PO4) and blocked with 300 μl of 1% skim milk in PBS for 30 min. Additionally, each well was washed twice with PBS and added with 50 μl of the substrate DNA solution (2 pmol/μl). The microtiter plates were kept at room temperature for 30 min. Then, each well was washed twice with PBS and once with H2O.
Subsequently, to the each well prepared above were added 45 μl of the reaction buffer prepared from 12 μl of the buffer (composition: 150 mM MOPS (pH 7.2), 75 mM MnCl2, 50 mM 2-mercaptoethanol, 25% glycerol, 500 μg/ml bovine serum albumin-fraction V), 1 μl of target DNA (5 pmol/μ), and 32 μl of the distilled water. Additionally, 6 μl of either a test compound in DMSO or DMSO for positive control (PC) was mixed with the above reaction buffer, then 9 μl of an integrase solution (30 pmol) was added thereto and the mixture was mixed well. To the well of negative control (NC) was added 9 μl of the integrase dilution buffer (composition: 20 mM MOPS (pH7.2), 400 mM potassium glutamate, 1 mM EDTA, 0.1% NP-40, 20% glycerol, 1 mM DTT, 4 M urea).
The microtiter plates were incubated at 30° C. for 1 hour. The reaction solution was removed and each well was washed twice with PBS. Subsequently, each well of the microtiter plates was filled with 100 μl of anti-digoxigenin antibody labeled with alkaline phosphatase (Sheep Fab fragment: obtained from Boehringer) and incubated at 30° C. for 1 hour. Then, each well was washed twice with 0.05% Tween20 in PBS and once with PBS. Next, 150 μl of the Alkaline phosphatase reaction buffer (composition: 10 mM p-Nitrophenylphosphate (obtained from Vector Laboratories), 5 mM MgCl2, 100 mM NaCl, 100 mM Tris-HCl (pH 9.5)) was added to each well. The microtiter plates were incubated at 30° C. for 2 hours and the reaction was terminated by the addition of 50 μl of 1 N NaOH solution. The optical density (OD) at 405 nm of each well was measured and the percent inhibition was determined by the following expression. The percent inhibition (%)=100[1−{(C abs.−NC abs.)/(PC abs.−NC abs.)}]
C abs.; the OD of the well of the test compound
NC abs.: the OD of the negative control (NC)
PC abs.: the OD of the positive control (PC)
When the percent inhibition (%) is X % at a concentration of x μg/ml and the percent inhibition (%) is Y % at a concentration of y μg/ml, one of which is more than 50% and the other is less than 50%, IC50 can be determined by the following expression. IC50 (μg/ml)=x−{(X−50)(x−y)/(X−Y)}
Compound No. in the Table 1 is the same as compound No. of the above Examples.

Turning to `COC(=O)c1ncc2cc(Cc3ccc(F)cc3)cnc2c1O` [Compound A-2, Methyl 3-(4-fluorobenzyl)-8-hydroxy-1,6-naphthylidine-7-carboxylate], the melting point lay within 218 to 219 °C. The IC50 at HIV integrase is 416 nM.
The like results for `COC(=O)c1nc(NS(C)(=O)=O)c2cc(Cc3ccc(F)cc3)cnc2c1O` [Compound A-9, Methyl 3-(4-fluorobenzyl)-8-hydroxy-5-methanesulfonylamino-1,6-naphthylidine-7-carboxylate] were, in that order, 205 to 210 °C and 222 nM.
The compound `COC(=O)c1nc(NC(C)=O)c2cc(Cc3ccc(F)cc3)cnc2c1O` [Compound A-10, Methyl 5-acetylamino-3-(4-fluorobenzyl)-8-hydroxy-1,6-naphthylidine-7-carboxylate] gave a melting point of 263 to 267 °C. The IC50 on HIV integrase is 379 nM.
As for `COC(=O)c1nc(C(=O)OC)c2cc(Cc3ccc(F)cc3)cnc2c1O` [Compound A-15, Dimethyl 3-(4-fluorobenzyl)-8-hydroxy-1,6-naphthylidine-5,7-dicarboxylate], the melting point lay in the range of 191 to 194 °C. For the same compound, on HIV integrase, the IC50 is 783 nM.
The corresponding values for `COC(=O)c1nc(C#CCO)c2cc(Cc3ccc(F)cc3)cnc2c1O` [Compound A-18, Methyl 3-(4-fluorobenzyl)-8-hydroxy-5-(3-hydroxy-1-propynyl)-1,6-naphthylidine-7-carboxylate] are 205 to 208 °C and 655 nM.
In the case of `CCC(=O)c1ncc2cc(Cc3ccc(F)cc3)cnc2c1O` [Compound A-19, 1-[3-(4-fluorobenzyl)-8-hydroxy-1,6-naphthylidin-7-yl]propan-1-one], the “MIA, IC50” value at HIV integrase was 0.12 µg/mL.
Consider `COC(=O)c1nc(N2CCCCS2(=O)=O)c2cc(Cc3ccc(F)cc3)cnc2c1O` [Compound A-22, Methyl 3-(4-fluorobenzyl)-5-(1,1-dioxido-1,2-thiazinan-2-yl)-8-hydroxy-1,6-naphthylidine-7-carboxylate], for which, on HIV integrase, the IC50 is 427 nM.
Consider `COC(=O)c1nc(NS(=O)(=O)N(C)C)c2cc(Cc3ccc(F)cc3)cnc2c1O` [Compound A-26, Methyl 5-[(dimethylamino)sulfonyl]-amino-3-(4-fluorobenzyl)-8-hydroxy-1,6-naphthylidine-7-carboxylate], for which the melting point lay in the range of 159 to 160 °C. Further, the IC50 at HIV integrase is 345 nM.
`COCCC(=O)Nc1nc(C(=O)OC)c(O)c2ncc(Cc3ccc(F)cc3)cc12` [Compound A-34, 3-(4-Fluorobenzyl)-8-hydroxy-5-(3-methoxy-1-propionyl)amino[1,6]naphthylidine-7-carboxylic acid methyl ester]: the melting point was in the range of 205 to 206 °C. Besides, the IC50 at HIV integrase was 701 nM.
The like results for `CCOC(=O)Nc1nc(C(=O)OC)c(O)c2ncc(Cc3ccc(F)cc3)cc12` [Compound A-42, 5-[(Ethoxycarbonyl)amino]-3-(4-fluorobenzyl)-8-hydroxy[1,6]naphthylidine-7-carboxylic acid methyl ester] were, in that order, 247 to 249 °C and 576 nM.
In turn, `COC(=O)c1nc(C#CCNS(C)(=O)=O)c2cc(Cc3ccc(F)cc3)cnc2c1O` [Compound A-50, 3-(4-Fluorobenzyl)-8-hydroxy-5-[3-(methanesulfonyamino)propyn-1-yl][1,6]naphthylidine-7-carboxylic acid methyl ester] came in with a melting point of 223 to 225 °C. Besides, the IC50 on HIV integrase was 248 nM.
On to `COC(=O)c1nc(C(=O)N2CCN(C)CC2)c2cc(Cc3ccc(F)cc3)cnc2c1O` [Compound A-54, 5-(4-Methylpiperadine-1-carbonyl)-3-(4-fluorobenzyl)-8-hydroxy[1,6]naphthylidine-7-carboxylic acid methyl ester], for which the melting point was 226 to 227 °C. The IC50 at HIV integrase was 1300 nM.
`COC(=O)c1nc(NC(=O)c2ccco2)c2cc(Cc3ccc(F)cc3)cnc2c1O` [Compound A-66, 3-(4-Fluorobenzyl)-5-(frane-2-carbonyl)amino-8-hydroxy[1,6]naphthylidine-7-carboxylic acid methyl ester]: the melting point lay within 200 to 202 °C. Moreover, the IC50 on HIV integrase is 688 nM.
The corresponding values for `COCC(C)OC(=O)c1ncc2cc(Cc3ccc(F)cc3)cnc2c1O` (stereo not drawn) [Compound A-79, 3-(4-Fluorobenzyl)-8-hydroxy[1,6]naphthylidine-7-carboxylic acid [2-(1-methoxy)propyl]ester] are 130 to 131 °C and 351 nM.
As for `CC(=O)N1CCC(OC(=O)c2ncc3cc(Cc4ccc(F)cc4)cnc3c2O)CC1` [Compound A-82, 3-(4-Fluorobenzyl)-8-hydroxy[1,6]naphthylidine-7-carboxylic acid 1-acetylpiperidine-4-yl ester], the melting point was 163 to 165 °C. In addition, on HIV integrase, the IC50 is 260 nM.
In the case of `CNC(=O)c1nc(C#CCO)c2cc(Cc3ccc(F)cc3)cnc2c1O` [Compound A-98, 3-(4-Fluorobenzyl)-8-hydroxy-5-(3-hydroxy-1-propyn-1-yl)-[1,6]naphthylidine-7-carboxylic acid methyl amide], the melting point is 185 °C. Moreover, the IC50 at HIV integrase is 520 nM.
Regarding `COC(=O)c1nc(NC(=O)C(=O)N(C)C)c2cc(Cc3ccc(F)cc3)cnc2c1O` [Compound A-115, 5-[[(Dimethylamino)oxalyl]amino]-3-(4-fluorobenzyl)-8-hydroxy[1,6]naphthylidine-7-carboxylic acid methyl ester], at HIV integrase, the IC50 was 422 nM.
`COC(=O)c1cc(C(=O)O)c2cc(Cc3ccc(F)cc3)cnc2c1O` [Compound I-3, 3-(4-Fluorobenzyl)-8-hydroxy-quinoline-5,7-dicarboxylic acid 7-methylester]: the melting point lay within 237 to 239 °C. In addition, at HIV integrase, the IC50 was 394 nM.
As for `O=C(O)c1cc(C(=O)O)c2cc(Cc3ccc(F)cc3)cnc2c1O` [Compound I-4, 3-(4-Fluorobenzyl)-8-hydroxyquinoline-5,7-dicarboxylic acid], the melting point lay in the range of 279 to 282 °C. For the same compound, at HIV integrase, the IC50 was 352 nM.
For the compound `COC(=O)c1cc(NC=O)c2cc(Cc3ccc(F)cc3)cnc2c1O` [Compound I-13, 3-(4-Fluorobenzyl)-5-formylamino-8-hydroxyquinoline-7-carboxylic acid methyl ester], on HIV integrase, the IC50 is 1040 nM.
As to `COC(=O)c1cc(C(=O)N2CCOCC2)c2cc(Cc3ccc(F)cc3)cnc2c1O` [Compound I-26, (4-Fluorobenzyl)-8-hydroxy-5-(morpholine-4-carbonyl)quinoline-7-carboxylic acid methyl ester], on HIV integrase, the “MIA, IC50” value amounted to 0.37 µg/mL.
`COC(=O)c1cc(C(=O)NC(C)C(=O)OC)c2cc(Cc3ccc(F)cc3)cnc2c1O` (stereo not drawn) [Compound I-54, (4-Fluorobenzyl)-8-hydroxy-5-(1-methoxycarbonylethylcarbamoyl)quinoline-7-carboxylic acid methyl ester]: the “MIA, IC50” value at HIV integrase was determined as 0.38 µg/mL.
Turning to `COC(=O)c1cc(C(=O)NCCCO)c2cc(Cc3ccc(F)cc3)cnc2c1O` [Compound I-58, 3-(4-Fluorobenzyl)-8-hydroxy-5-(3-hydroxypropylcarbamoyl)quinoline-7-carboxylic acid methyl ester], the IC50 on HIV integrase was 388 nM.
